Data as given in PubChem BioAssay AID1963979 (Molecular Pharmacology Branch, DTP, NCI, 2024).

Tested on: 361931-004-R-J1-PDC multicell spheroid viability
Assay: Anticancer human tumor 361931-004-R-J1-PDC patient-derived colon adenocarcinoma cell line growth inhibition [PI3K]
Settings: for IC50: curve of first compound; for viability, T/C: stronger effect = lower value; active = viability on the fitted dose curve at most 10% of control; inactive = the rest
How it was run: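 Tumor cells were combined with HUVEC and MSCs into spheroids, then dosed with PI3K-inhibitor combinations over half-log ranges capped near clinical Cmax or 10 microM.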

[1] = second compound 0.0316 µM, first compound 0.0316 µM
[2] = second compound 0.0316 µM, first compound 0.1 µM
[3] = second compound 0.0316 µM, first compound 0.316 µM
[4] = second compound 0.0316 µM, first compound 1 µM
[5] = second compound 0.0316 µM, first compound 3.16 µM
[6] = second compound 0.0316 µM, first compound 10 µM
[7] = second compound 0.1 µM, first compound 0.0316 µM
[8] = second compound 0.1 µM, first compound 0.1 µM
[9] = second compound 0.1 µM, first compound 0.316 µM
[10] = second compound 0.1 µM, first compound 1 µM
[11] = second compound 0.1 µM, first compound 3.16 µM
[12] = second compound 0.1 µM, first compound 10 µM
[13] = second compound 0.316 µM, first compound 0.0316 µM
[14] = second compound 0.316 µM, first compound 0.1 µM
[15] = second compound 0.316 µM, first compound 0.316 µM
[16] = second compound 0.316 µM, first compound 1 µM
[17] = second compound 0.316 µM, first compound 3.16 µM
[18] = second compound 0.316 µM, first compound 10 µM
[19] = second compound 1 µM, first compound 0.0316 µM
[20] = second compound 1 µM, first compound 0.1 µM
[21] = second compound 1 µM, first compound 0.316 µM
[22] = second compound 1 µM, first compound 1 µM
[23] = second compound 1 µM, first compound 3.16 µM
[24] = second compound 1 µM, first compound 10 µM
[25] = second compound 3.16 µM, first compound 0.0316 µM
[26] = second compound 3.16 µM, first compound 0.1 µM
[27] = second compound 3.16 µM, first compound 0.316 µM
[28] = second compound 3.16 µM, first compound 1 µM
[29] = second compound 3.16 µM, first compound 3.16 µM
[30] = second compound 3.16 µM, first compound 10 µM
[31] = second compound 10 µM, first compound 0.0316 µM
[32] = second compound 10 µM, first compound 0.1 µM
[33] = second compound 10 µM, first compound 0.316 µM
[34] = second compound 10 µM, first compound 1 µM
[35] = second compound 10 µM, first compound 3.16 µM
[36] = second compound 10 µM, first compound 10 µM
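Also: spheroids exposed to agents for seven days before readout.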

C#Cc1c(F)ccc2cc(O)cc(-c3ncc4c(N5CC6CCC(C5)N6)nc(OCC56CCCN5CC(F)C6)nc4c3F)c12 (stereo not given) + Cc1nc(NC(=O)N2CCCC2C(N)=O)sc1-c1ccnc(C(C)(C)C(F)(F)F)c1
0.219 µM: IC50 (second compound 10 µM)
> 10 µM: IC50 (second compound 0.0316 µM) | IC50 (second compound 0.1 µM) | IC50 (second compound 0.316 µM) | IC50 (second compound 1 µM)
3.52 µM: IC50 (second compound 3.16 µM)
inactive: viability, T/C [1] 104% | viability, T/C [2] 90.5% | viability, T/C [3] 91.6% | viability, T/C [4] 83% | viability, T/C [5] 79.7% | viability, T/C [6] 69.3% | viability, T/C [7] 109% | viability, T/C [8] 98.3% | viability, T/C [9] 93.7% | viability, T/C [10] 88.9% | viability, T/C [11] 88.2% | viability, T/C [12] 61.8% | viability, T/C [13] 91.6% | viability, T/C [14] 86.5% | viability, T/C [15] 78.6% | viability, T/C [16] 69.5% | viability, T/C [17] 73.5% | viability, T/C [18] 58% | viability, T/C [19] 89.2% | viability, T/C [20] 86.2% | viability, T/C [21] 70.3% | viability, T/C [22] 62.2% | viability, T/C [23] 68.2% | viability, T/C [24] 58.6% | viability, T/C [25] 85.4% | viability, T/C [26] 77.9% | viability, T/C [27] 65.5% | viability, T/C [28] 53.9% | viability, T/C [29] 56.5% | viability, T/C [30] 42% | viability, T/C [31] 62.2% | viability, T/C [32] 48% | viability, T/C [33] 49% | viability, T/C [34] 40.2% | viability, T/C [35] 39.2% | viability, T/C [36] 22.1%

C=CC(=O)N1CCN(c2nc(=O)n(-c3c(C)ccnc3C(C)C)c3nc(-c4c(O)cccc4F)c(F)cc23)C(C)C1 (stereo not given) + Cc1nc(NC(=O)N2CCCC2C(N)=O)sc1-c1ccnc(C(C)(C)C(F)(F)F)c1
> 10 µM: IC50 (second compound 0.0316 µM) | IC50 (second compound 0.1 µM) | IC50 (second compound 0.316 µM) | IC50 (second compound 1 µM) | IC50 (second compound 3.16 µM) | IC50 (second compound 10 µM)
inactive: viability, T/C [1] 91% | viability, T/C [2] 102% | viability, T/C [3] 87.7% | viability, T/C [4] 96.5% | viability, T/C [5] 93.3% | viability, T/C [6] 73.9% | viability, T/C [7] 91.8% | viability, T/C [8] 96.8% | viability, T/C [9] 98.6% | viability, T/C [10] 99% | viability, T/C [11] 97.4% | viability, T/C [12] 61.7% | viability, T/C [13] 96.6% | viability, T/C [14] 96.7% | viability, T/C [15] 99.5% | viability, T/C [16] 85.2% | viability, T/C [17] 96.3% | viability, T/C [18] 73.5% | viability, T/C [19] 90.2% | viability, T/C [20] 83.4% | viability, T/C [21] 80.5% | viability, T/C [22] 73.6% | viability, T/C [23] 80.8% | viability, T/C [24] 63% | viability, T/C [25] 74.9% | viability, T/C [26] 85.6% | viability, T/C [27] 67% | viability, T/C [28] 69.9% | viability, T/C [29] 72.8% | viability, T/C [30] 55.5% | viability, T/C [31] 58.4% | viability, T/C [32] 61.2% | viability, T/C [33] 56.9% | viability, T/C [34] 68.3% | viability, T/C [35] 57.8% | viability, T/C [36] 40%

CC(Cn1ccc(-c2ccc(C#N)c(Cl)c2)n1)NC(=O)c1cc(C(C)O)[nH]n1 (stereo not given) + Cc1nc(NC(=O)N2CCCC2C(N)=O)sc1-c1ccnc(C(C)(C)C(F)(F)F)c1
> 10 µM: IC50 (second compound 0.0316 µM) | IC50 (second compound 0.1 µM) | IC50 (second compound 0.316 µM) | IC50 (second compound 1 µM) | IC50 (second compound 3.16 µM) | IC50 (second compound 10 µM)
inactive: viability, T/C [1] 102% | viability, T/C [2] 102% | viability, T/C [3] 96.3% | viability, T/C [4] 100% | viability, T/C [5] 107% | viability, T/C [6] 98.7% | viability, T/C [7] 105% | viability, T/C [8] 105% | viability, T/C [9] 99.1% | viability, T/C [10] 113% | viability, T/C [11] 109% | viability, T/C [12] 101% | viability, T/C [13] 98.5% | viability, T/C [14] 113% | viability, T/C [15] 95.6% | viability, T/C [16] 105% | viability, T/C [17] 98.9% | viability, T/C [18] 91.5% | viability, T/C [19] 95.4% | viability, T/C [20] 102% | viability, T/C [21] 87.4% | viability, T/C [22] 96% | viability, T/C [23] 97% | viability, T/C [24] 84.2% | viability, T/C [25] 87.4% | viability, T/C [26] 81.3% | viability, T/C [27] 90.7% | viability, T/C [28] 83.6% | viability, T/C [29] 94.4% | viability, T/C [30] 79.4% | viability, T/C [31] 68% | viability, T/C [32] 68% | viability, T/C [33] 72.8% | viability, T/C [34] 62.4% | viability, T/C [35] 59.8% | viability, T/C [36] 53%

CC1(C)CCC(Nc2ncc(C(F)(F)F)c(-c3c[nH]c4c(P(C)(C)=O)c(C#N)ccc34)n2)CN1 (stereo not given) + Cc1nc(NC(=O)N2CCCC2C(N)=O)sc1-c1ccnc(C(C)(C)C(F)(F)F)c1
4.32 µM: IC50 (second compound 1 µM)
4.24 µM: IC50 (second compound 0.316 µM)
< 0.0316 µM: IC50 (second compound 10 µM)
active: viability, T/C [6] 5.89% | viability, T/C [12] 7.04% | viability, T/C [18] 5.97% | viability, T/C [24] 6.15% | viability, T/C [30] 4.43% | viability, T/C [36] 1.98%
4.5 µM: IC50 (second compound 0.0316 µM)
3.7 µM: IC50 (second compound 0.1 µM)
inactive: viability, T/C [1] 97.1% | viability, T/C [2] 82.6% | viability, T/C [3] 79.9% | viability, T/C [4] 79.9% | viability, T/C [5] 71.3% | viability, T/C [7] 101% | viability, T/C [8] 92.8% | viability, T/C [9] 84.9% | viability, T/C [10] 78.5% | viability, T/C [11] 59.7% | viability, T/C [13] 89.8% | viability, T/C [14] 84.4% | viability, T/C [15] 74.8% | viability, T/C [16] 70.6% | viability, T/C [17] 69.1% | viability, T/C [19] 76.5% | viability, T/C [20] 68.6% | viability, T/C [21] 65.2% | viability, T/C [22] 80.4% | viability, T/C [23] 65.8% | viability, T/C [25] 73.5% | viability, T/C [26] 62.5% | viability, T/C [27] 59.5% | viability, T/C [28] 57.5% | viability, T/C [29] 51.4% | viability, T/C [31] 49.1% | viability, T/C [32] 51.9% | viability, T/C [33] 44.9% | viability, T/C [34] 44.1% | viability, T/C [35] 39.5%
2.72 µM: IC50 (second compound 3.16 µM)

Cn1nccc1Nc1nccc(-c2ccn(C(CO)c3ccc(Cl)c(F)c3)c(=O)c2)n1 (stereo not given) + Cc1nc(NC(=O)N2CCCC2C(N)=O)sc1-c1ccnc(C(C)(C)C(F)(F)F)c1
6.31 µM: IC50 (second compound 0.316 µM)
1.19 µM: IC50 (second compound 3.16 µM)
0.213 µM: IC50 (second compound 10 µM)
3.14 µM: IC50 (second compound 1 µM)
active: viability, T/C [30] 10.4% | viability, T/C [35] 4.98% | viability, T/C [36] 2.3%
9.92 µM: IC50 (second compound 0.0316 µM)
inactive: viability, T/C [1] 106% | viability, T/C [2] 101% | viability, T/C [3] 90.4% | viability, T/C [4] 94.5% | viability, T/C [5] 85.9% | viability, T/C [6] 49.2% | viability, T/C [7] 108% | viability, T/C [8] 109% | viability, T/C [9] 101% | viability, T/C [10] 89.4% | viability, T/C [11] 78.8% | viability, T/C [12] 42.9% | viability, T/C [13] 112% | viability, T/C [14] 110% | viability, T/C [15] 95.5% | viability, T/C [16] 86.8% | viability, T/C [17] 69.8% | viability, T/C [18] 37.3% | viability, T/C [19] 99.5% | viability, T/C [20] 99.6% | viability, T/C [21] 94% | viability, T/C [22] 83.2% | viability, T/C [23] 49.4% | viability, T/C [24] 26.9% | viability, T/C [25] 91.4% | viability, T/C [26] 87.2% | viability, T/C [27] 75.9% | viability, T/C [28] 56.6% | viability, T/C [29] 24% | viability, T/C [31] 80% | viability, T/C [32] 63.5% | viability, T/C [33] 43.6% | viability, T/C [34] 19%
7.97 µM: IC50 (second compound 0.1 µM)
